Reference: ChEMBL document CHEMBL5352419, “Design, synthesis, and biological evaluation of tetrahydroquinoline amphiphiles as membrane-targeting antimicrobials against pathogenic bacteria and fungi” (Eur J Med Chem, 2022)
Converted amounts (≈) assume the structure as drawn. The source made the active and inactive calls. The calls are words filed in the database; no cut-off is given here.

How the values were obtained:
Candida albicans [1] = assay: Antimicrobial activity against Candida albicans ATCC10231 assessed as fungal growth inhibition incubated for 48 hrs by Sabouraud Dextrose broth based dilution assay; format: functional
Candida albicans [2] = assay: Antimicrobial activity against Candida albicans CMCC98001 assessed as fungal growth inhibition incubated for 48 hrs by Sabouraud Dextrose broth based dilution assay; format: functional
Staphylococcus aureus [3] = assay: Antimicrobial activity against Staphylococcus aureus ATCC29213 assessed as bacterial growth inhibition incubated for 24 hrs by Muller Hinton broth based dilution assay; format: functional
Staphylococcus aureus [4] = assay: Antimicrobial activity against methicillin-resistant Staphylococcus aureus N315 assessed as bacterial growth inhibition incubated for 24 hrs by Muller Hinton broth based dilution assay; format: functional
Staphylococcus aureus [5] = assay: Antimicrobial activity against methicillin-resistant Staphylococcus aureus NCTC10442 assessed as bacterial growth inhibition incubated for 24 hrs by Muller Hinton broth based dilution assay; format: functional
Escherichia coli [6] = assay: Antimicrobial activity against Escherichia coli ATCC25922 assessed as bacterial growth inhibition incubated for 24 hrs by Muller Hinton broth based dilution assay; format: functional
[7] = Hemolytic activity in rabbit RBC incubated for 1 hr by absorbance based microplate reader assay; format: toxicity, cell-based, Oryctolagus cuniculus, Erythrocyte; details: rabbit red blood cells (erythrocytes)
Pseudomonas aeruginosa = assay: Antimicrobial activity against Pseudomonas aeruginosa ATCC9027 assessed as bacterial growth inhibition incubated for 24 hrs by Muller Hinton broth based dilution assay; format: functional
Acinetobacter baumannii [8] = assay: Antimicrobial activity against Acinetobacter baumannii ATCC17978 assessed as bacterial growth inhibition incubated for 24 hrs by Muller Hinton broth based dilution assay; format: functional
Acinetobacter baumannii [9] = assay: Antimicrobial activity against Acinetobacter baumannii R2889 assessed as bacterial growth inhibition incubated for 24 hrs by Muller Hinton broth based dilution assay; format: functional
Klebsiella pneumoniae [10] = assay: Antimicrobial activity against Klebsiella pneumoniae ATCC10031 assessed as bacterial growth inhibition incubated for 24 hrs by Muller Hinton broth based dilution assay; format: functional
Klebsiella pneumoniae [11] = assay: Antimicrobial activity against Klebsiella pneumoniae ATCC14581 assessed as bacterial growth inhibition incubated for 24 hrs by Muller Hinton broth based dilution assay; format: functional
Escherichia coli [12] = assay: Induction of drug resistance in Escherichia coli ATCC25922 assessed as fold increase in MIC at sub-inhibitory concentration incubated for 21 to 22 passages; format: functional
Cell membrane = assay: Disruption of outer membrane integrity in Acinetobacter baumannii ATCC17978 at 25 ug/mL; details: dose 25.0 µg/ml
Escherichia coli [13] = assay: Antibiofilm activity against Escherichia coli ATCC25922 assessed as inhibition of biofilm formation at 0.39 ug/mL incubated for 24 hrs by crystal violet staining based analysis relative to control; format: functional; details: dose 0.39 µg/ml
Escherichia coli [14] = assay: Antibiofilm activity against Escherichia coli ATCC25922 assessed as inhibition of biofilm formation at 0.78 ug/mL incubated for 24 hrs by crystal violet staining based analysis relative to control; format: functional; details: dose 0.78 µg/ml
Escherichia coli [15] = assay: Antibiofilm activity against Escherichia coli ATCC25922 assessed as inhibition of biofilm formation at 3.125 ug/mL incubated for 24 hrs by crystal violet staining based analysis relative to control; format: functional; details: dose 3.125 µg/ml
Escherichia coli [16] = assay: Antibiofilm activity against Escherichia coli ATCC25922 assessed as inhibition of biofilm formation at 6.25 ug/mL incubated for 24 hrs by crystal violet staining based analysis relative to control; format: functional; details: dose 6.25 µg/ml
Escherichia coli [17] = assay: Disruption of preformed biofilm in Escherichia coli ATCC25922 assessed as residual preformed biofilm at 6.25 ug/mL incubated for 24 hrs by crystal violet staining based analysis relative to control; format: functional; details: dose 6.25 µg/ml
Escherichia coli [18] = assay: Disruption of preformed biofilm in Escherichia coli ATCC25922 assessed as residual preformed biofilm at 0.78 ug/mL incubated for 24 hrs by crystal violet staining based analysis relative to control; format: functional; details: dose 0.78 µg/ml
Escherichia coli [19] = assay: Disruption of preformed biofilm in Escherichia coli ATCC25922 assessed as residual preformed biofilm at 3.125 ug/mL incubated for 24 hrs by crystal violet staining based analysis relative to control; format: functional; details: dose 3.125 µg/ml
Escherichia coli [20] = assay: Disruption of preformed biofilm in Escherichia coli ATCC25922 assessed as residual preformed biofilm at 12.5 ug/mL incubated for 24 hrs by crystal violet staining based analysis relative to control; format: functional; details: dose 12.5 µg/ml
Escherichia coli [21] = assay: Disruption of preformed biofilm in Escherichia coli ATCC25922 assessed as residual preformed biofilm at 25 ug/mL incubated for 24 hrs by crystal violet staining based analysis relative to control; format: functional; details: dose 25.0 µg/ml

Row | Compound | MIC (Candida albicans [1]) [µg/mL] | MIC (Candida albicans [2]) [µg/mL] | MIC (Staphylococcus aureus [3]) [µg/mL] | MIC (Staphylococcus aureus [4]) [µg/mL] | MIC (Staphylococcus aureus [5]) [µg/mL] | MIC (Escherichia coli [6]) [µg/mL] | HC50 at 1 h [7] [µg/mL] | MIC (Pseudomonas aeruginosa) [µg/mL] | MIC (Acinetobacter baumannii [8]) [µg/mL] | MIC (Acinetobacter baumannii [9]) [µg/mL] | MIC (Klebsiella pneumoniae [10]) [µg/mL] | MIC (Klebsiella pneumoniae [11]) [µg/mL] | other results
1 | CCCCCCCCCN1CCCc2cc(OCC(=O)N[C@@H](CCCNC(=N)N)C(=O)N[C@@H](CCCNC(=N)N)C(=O)N[C@@H](CCCNC(=N)N)C(=O)OC)ccc21 | > 50 | 50 (≈ 61.3 µM) | 3.12 (≈ 3.83 µM) | 1.56 (≈ 1.91 µM) | 1.56 (≈ 1.91 µM) | 12.5 (≈ 15.3 µM) | > 200 | 25 (≈ 30.6 µM) | 12.5 (≈ 15.3 µM) | 50 (≈ 61.3 µM) | 12.5 (≈ 15.3 µM) | 12.5 (≈ 15.3 µM) | –
2 | CCCCCCCN1CCCc2cc(OCCCCNC(=N)N)ccc21 | 6.25 (≈ 17.3 µM) | 3.12 (≈ 8.67 µM) | 1.56 (≈ 4.33 µM) | 0.78 (≈ 2.16 µM) | 0.78 (≈ 2.16 µM) | 3.12 (≈ 8.67 µM) | 169 | 6.25 (≈ 17.3 µM) | 6.25 (≈ 17.3 µM) | 6.25 (≈ 17.3 µM) | 1.56 (≈ 4.33 µM) | 1.56 (≈ 4.33 µM) | –
3 | CC(C)=CCN1CCCc2cc(OCCCCCCCCCCNC(=N)N)ccc21 | 1.56 (≈ 3.76 µM) | 1.56 (≈ 3.76 µM) | 1.56 (≈ 3.76 µM) | 0.78 (≈ 1.88 µM) | 1.56 (≈ 3.76 µM) | 12.5 (≈ 30.1 µM) | > 200 | 50 (≈ 121 µM) | 25 (≈ 60.3 µM) | 12.5 (≈ 30.1 µM) | 3.12 (≈ 7.54 µM) | 6.25 (≈ 15.1 µM) | –
4 | CC1(C)S[C@@H]2[C@H](NC(=O)[C@H](N)c3ccc(O)cc3)C(=O)N2[C@H]1C(=O)O | – | – | – | – | – | – | – | – | – | – | – | – | fold change (FC) (Escherichia coli [12]): 16
5 | CC(C)=CCC/C(C)=C/CN1CCCc2cc(OCCCCNC(=N)N)ccc21 | 3.12 (≈ 7.84 µM) | 1.56 (≈ 3.91 µM) | 0.78 (≈ 1.96 µM) | 0.78 (≈ 1.96 µM) | 0.78 (≈ 1.96 µM) | 3.12 (≈ 7.84 µM) | 154 | 6.25 (≈ 15.7 µM) | 3.12 (≈ 7.84 µM) | 3.12 (≈ 7.84 µM) | 1.56 (≈ 3.91 µM) | 1.56 (≈ 3.91 µM) | –
6 | CCCCCN1CCCc2cc(OCCCCNC(=N)N)ccc21 | 50 (≈ 150 µM) | 50 (≈ 150 µM) | 1.56 (≈ 4.69 µM) | 1.56 (≈ 4.69 µM) | 1.56 (≈ 4.69 µM) | 12.5 (≈ 37.6 µM) | 178 | 25 (≈ 75.2 µM) | 12.5 (≈ 37.6 µM) | 25 (≈ 75.2 µM) | 6.25 (≈ 18.8 µM) | 12.5 (≈ 37.6 µM) | –
7 | CCCCCCCN1CCCc2cc(OCCCCCCCCNC(=N)N)ccc21 | 0.78 (≈ 1.87 µM) | 0.39 (≈ 0.936 µM) | 1.56 (≈ 3.74 µM) | 0.78 (≈ 1.87 µM) | 0.78 (≈ 1.87 µM) | 3.12 (≈ 7.5 µM) | > 200 | > 50 | 25 (≈ 60 µM) | 12.5 (≈ 30 µM) | 12.5 (≈ 30 µM) | 12.5 (≈ 30 µM) | Activity (Cell membrane): inactive
8 | POLYMYXIN B | – | – | – | – | – | – | – | – | – | – | – | – | inhibition (Escherichia coli [13]): 22.9%; inhibition (Escherichia coli [14]): 43.3%; inhibition (Escherichia coli [15]): 99.8%; inhibition (Escherichia coli [16]): 100%; Activity (Escherichia coli [17]): 7.57%; Activity (Escherichia coli [18]): 87.5%; Activity (Escherichia coli [19]): 19.2%; Activity (Escherichia coli [20]): 8.48%; Activity (Escherichia coli [21]): 6.65%
9 | CC(C)=CCN1CCCc2cc(OCCCCCCNC(=N)N)ccc21 | 12.5 (≈ 34.9 µM) | 12.5 (≈ 34.9 µM) | 1.56 (≈ 4.35 µM) | 0.78 (≈ 2.18 µM) | 0.78 (≈ 2.18 µM) | 6.25 (≈ 17.4 µM) | 184 | 25 (≈ 69.7 µM) | 25 (≈ 69.7 µM) | 12.5 (≈ 34.9 µM) | 6.25 (≈ 17.4 µM) | 6.25 (≈ 17.4 µM) | –
10 | CCCCCCCCCN1CCCc2cc(OCC(=O)N[C@@H](CCCNC(=N)N)C(N)=O)ccc21 | 3.12 (≈ 6.39 µM) | 3.12 (≈ 6.39 µM) | 1.56 (≈ 3.19 µM) | 1.56 (≈ 3.19 µM) | 1.56 (≈ 3.19 µM) | 3.12 (≈ 6.39 µM) | > 200 | 6.25 (≈ 12.8 µM) | 12.5 (≈ 25.6 µM) | 12.5 (≈ 25.6 µM) | 3.12 (≈ 6.39 µM) | 3.12 (≈ 6.39 µM) | –
